Measurements published in patent US4933497A, “Preparation of hydroxybenzaldehydes by hydrocarbonylation of halophenols” (Rhone-Poulenc Chimie, priority 1988, dated 1990).

Experiments:
[1] = water
[2] = in water; cited from earlier work
[3] = in water (generally at 25° C.); cited from earlier work

| Compound | pKa of the halophenol [1] | pKa of the phosphine [2] | also measured |
| --- | --- | --- | --- |
| CCOc1cc(Br)ccc1O [4-bromo-2-ethoxyphenol] | ~9.5 |  |  |
| c1ccc(P(c2ccccc2)c2ccccc2)cc1 [triphenylphosphine, reference compound] |  | 2.74 |  |
| Oc1ccccc1Br [2-bromophenol] | 8.55 |  |  |
| CCP(CC)CC [triethylphosphine] |  | 8.69 |  |
| C1CCC(P(C2CCCCC2)C2CCCCC2)CC1 [tricyclohexylphosphine] |  | 9.7 |  |
| c1ccc(CP(Cc2ccccc2)Cc2ccccc2)cc1 [tribenzylphosphine] |  | 6.0 |  |
| COc1cc(Br)ccc1O [4-bromo-2-methoxyphenol] | 9.5 |  |  |
| CN(C)c1ccncc1 [4-dimethylaminopyridine] |  |  | pKa of the conjugate acid of the amine [3]: 9.55 |
